Assay results taken from publication PMC10313921, “A living ex vivo platform for functional, personalized brain cancer diagnosis” (Cell Reports Medicine, 2023).

Tests used:
Type in all cases: cell-based, human
[1] = test system: MB231Br (breast cancer metastasis to brain); assay: Drug screening of MB231Br tumor foci on OBSCs
[2] = test system: LN229 (established GBM line); assay: Drug screening of LN229 tumor foci on OBSCs
Procedure, shortened: (§1)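 Drug effects on tumor foci grown on brain slices are quantified by bioluminescence three days after treatment, relative to untreated foci and day-one fluorescence. Efficacy versus slice toxicity is combined into a weighted drug sensitivity score.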

[3] = test system: U373WT (wild-type established GBM line); assay: Drug screening of U373WT tumor foci on OBSCs; conditions: U373 WT on OBSCs
Procedure, shortened: as §1

[4] = test system: U373KO (RAD18 knockout of U373WT via CRISPR); assay: Drug screening of U373KO tumor foci on OBSCs; conditions: U373 KO on OBSCs
Procedure, shortened: as §1

[5] = test system: GBM8 (high-passage patient-derived GBM line); assay: Drug screening of GBM8 tumor foci on OBSCs; conditions: GBM8 on OBSCs
Procedure, shortened: as §1

[6] = test system: MS21 (low-passage patient-derived GBM line); assay: Drug screening of MS21 tumor foci on OBSCs; conditions: MS21 on OBSCs
Procedure, shortened: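 Tumor foci (25,000 cells) were seeded onto organotypic brain slice cultures 2 h after slicing, two per slice; one day later six drug concentrations were added to the medium or X-ray was applied. Bioluminescence was read 3 days after treatment, normalized to day-one fluorescence and to untreated controls.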

[7] = test system: PDIPG (low-passage pediatric patient-derived line); assay: Drug screening of PDIPG tumor foci on OBSCs; conditions: PDIPG on OBSCs
Procedure, shortened: as §1

[8] = test system: PIS patient tumor tissue (intracranial sarcoma); assay: Drug screening of uncultured patient tumor tissue PIS on OBSCs; conditions: Homo sapiens, PIS on OBSCs
Procedure: (§2) Tumor cells were seeded onto OBSCs 2h after slicing as described above. One day after tumor seeding, six concentrations of each drug were diluted in the media underneath each culture insert, or XRad was applied using an X-Rad 320 Precision X-ray machine (n = 4 tumor foci per concentration; n ≥ 24 tumor foci per drug per cell line). Three days after treatment, the bioluminescence of live tumor cells was measured using an AMI optical imager (Spectral Instruments) and dose-response curves were generated. Tumor survival was normalized to day one tumor fluorescence and compared to an untreated control group.
(§3) To engraft onto OBSCs, the cryopreserved/thawed or fresh brain tumor tissue was filtered through a 100 μm cell strainer. Each 50 mg of tissue was transfected with 1mL mcherry-FLuc Lentivirus at 1.5e7 vg/ml with 1μL polybrene for 4h at 37°C. After incubation, the brain tumor tissue was washed with PBS three times to remove the residual virus and reconstituted in PBS with a final volume of 150 μL. Then the tissue solution was engrafted atop OBSCs at ∼0.5 mg tissue in 3 μL of PBS on each hemisphere of the slice. The OBSC engrafted with patient tumor tissue was incubated at 37°C with 5% CO2 and 95% humidity. The BSM was changed after 24h and subsequently every 3 days. Tumor treatment studies were executed as described above for tumor lines. The viability of the patient tissue was measured by an AMI optical imaging system with the addition of 1.5 mg/mL luciferin underneath the culture insert.
(§4) Several weighted parameters were factored into an overall drug sensitivity score.
(§5) For DSS parameters 1–6, therapeutic windows were calculated by comparing OBSC toxicity and tumor response at the doses where tumor kill passed through the DSS parameter (Table S1 and S3). For DSS parameter 7, the therapeutic window was calculated by comparing the slopes through the tumor EC50 and the OBSC tox EC50. For DSS parameter 8, the therapeutic window was calculated by comparing the areas under tumor kill and OBSC tox curves. Normalized therapeutic window ratios for DSS parameters 1–8 within each drug-tumor-OBSC interaction were calculated in the following manner: within each window, values ranged from +1 to −1, where values approaching +1 signify increasing tumor kill relative to normal tissue toxicity, and values approaching −1 indicate agents where tumors remained highly viable while toxicity to the normal OBSC tissue was elevated. DSS parameters 9–11 were determined based on the behavior of the tumor in response to the drug, as defined above.
(§6) All individually weighed parameters were added together to generate the DSS. Overall DSS from 0 to 100 signify increasing efficacy in tumor kill relative to OBSC toxicity, while scores from 0 to −100 describe scenarios in which tumors thrive more effectively than OBSCs for a given treatment. Dose-response values were calculated via linear interpolation of raw data, not from best-fit curve equations.

[9] = test system: PGBM patient tumor tissue (pediatric GBM); assay: Drug screening of uncultured patient tumor tissue PGBM on OBSCs
Procedure: as §2, §3, §4, §5, §6

[10] = test system: 7 cell lines (MB231Br, LN229, U373WT, U373KO, GBM8, MS21, PDIPG); assay: Drug screening on OBSCs, summary over the panel of seven tumor lines
Procedure, shortened: as §1

[11] = area under the dose-response curve, trapezoidal rule
[12] = dose required to kill 10% of the tumor
[13] = dose required to kill 25% of the tumor
[14] = Homo sapiens, U373 MG, dose required to kill 50% of the tumor
[15] = Homo sapiens, U373 MG, dose required to kill 90% of the tumor
[16] = Homo sapiens, U373 MG, dosed day 1, survival via bioluminescence day 4, linear interpolation
[17] = dose required to kill 75% of the tumor
[18] = Homo sapiens, dose required to kill 90% of the tumor, read-out: EC90
[19] = Homo sapiens, dosed day 1, survival via bioluminescence day 4, linear interpolation, read-out: IC50

Structure (SMILES): Cn1nnc2c(C(N)=O)ncn2c1=O [Temozolomide]
- EC50 ([1]; Homo sapiens, MB231BR on OBSCs, dose required to kill 50% of the tumor): > 10 µM
- EC90 ([1]; Homo sapiens, MB231BR on OBSCs, dose required to kill 90% of the tumor): > 10 µM
- IC50 ([1]; Homo sapiens, MB231Br on OBSCs, dosed day 1, survival via bioluminescence day 4, linear interpolation): > 10 µM
- Killing at highest dose ([1]; MB231BR on OBSCs): -3.30E-01 fraction of tumor population killed
- AUC ([1]; MB231BR on OBSCs, area under the dose-response curve, trapezoidal rule): 2.58E+03
- Killing at highest dose [2]: 3.50E-01 fraction of tumor population killed
- EC50 ([2]; Homo sapiens, LN-229, dose required to kill 50% of the tumor): > 10 µM
- EC90 ([2]; Homo sapiens, LN-229, dose required to kill 90% of the tumor): > 10 µM
- IC50 ([2]; Homo sapiens, LN-229, dosed day 1, survival via bioluminescence day 4, linear interpolation): > 10 µM
- AUC [2, 11]: 1.53E+03
- EC10 [2, 12]: 59.4 µM
- EC25 [2, 13]: 460 µM
- Slope ([2]; slope through the EC50): -4.00E-05
- EC50 [3, 14]: > 10 µM
- EC90 [3, 15]: > 10 µM
- IC50 [3, 16]: > 10 µM
- Killing at highest dose [3]: 2.20E-01 fraction of tumor population killed
- AUC [3, 11]: 1.52E+03
- EC10 [3, 12]: 67.3 µM
- EC25 [3, 13]: 96.2 µM
- Slope ([3]; slope through the EC50): -9.14E-06
- EC50 [4, 14]: 1160 µM
- EC90 [4, 15]: > 10 µM
- IC50 [4, 16]: 1160 µM
- Killing at highest dose [4]: 5.40E-01 fraction of tumor population killed
- AUC [4, 11]: 8.89E+02
- EC10 [4, 12]: 3.85 µM
- EC25 [4, 13]: 9.62 µM
- Slope ([4]; slope through the EC50): -8.67E-04
- Killing at highest dose [5]: 1.00E+00 fraction of tumor population killed
- AUC [5, 11]: 9.52E+01
- EC10 [5, 12]: 1.52 µM
- EC25 [5, 13]: 3.79 µM
- EC75 [5, 17]: 31.2 µM
- Slope ([5]; slope through the EC50): -6.60E-02
- EC50 ([5]; Homo sapiens, dose required to kill 50% of the tumor, read-out: EC50): 7.58 µM
- EC90 [5, 18]: 167 µM
- IC50 [5, 19]: 7.6 µM
- Killing at highest dose [6]: -8.20E-01 fraction of tumor population killed
- AUC [6, 11]: 2.37E+03
- EC25 [6, 13]: 417 µM
- EC75 [6, 17]: 1250 µM
- Slope ([6]; slope through the EC50): 5.47E-04
- EC90 [7, 18]: > 10 µM
- IC50 [7, 19]: > 10 µM
- Killing at highest dose [7]: 2.90E-01 fraction of tumor population killed
- AUC [7, 11]: 1.88E+03
- EC10 [7, 12]: 5 µM
- EC25 [7, 13]: 667 µM
- Slope ([7]; slope through the EC50): -4.80E-05
- EC50 ([8]; dose required to kill 50% of the tumor): > 100 µM
- EC90 ([8]; dose required to kill 90% of the tumor): > 10 µM
- EC50 ([9]; Homo sapiens, PGBM on OBSCs, dose required to kill 50% of the tumor): > 100 µM
- EC90 ([9]; Homo sapiens, PGBM on OBSCs, dose required to kill 90% of the tumor): > 10 µM
- DSS (drug sensitivity score) ([9]; PGBM patient tissue, scale -100 to +100): 26
- DSS scores, range among tumors [10]: −62 to 96
